Columns and labels:
32D cells = experiment: IL-3 stimulated (HRG-independent) growth, 32D; assay type: cell-based, murine
Excerpt: (§1) Inhibition of HRG-dependent cell proliferation--Since most human cancer cells express more than one of the erbB receptors and different heterodimerization might alter the binding affinity and/or internalization, it is difficult to define the exact correlation of the receptor expression and the antagonist activity of the small molecules. To overcome this difficulty, a 32D cell (murine, hematopoietic) model system, in which the 32D cells were transfected with erbB4 receptor, can be utilized. […] 32t cells transfected with erbB-4 will proliferate in the presence of either HRG or IL-3. With this 32D cell model system, compounds of the invention can be tested for their antagonist activity and specificity in both HRG-dependent and HRG-independent growth.

[1] = system: HRG-induced tyrosine phosphorylation (MDA-453 cells); experiment: Inhibition of HRG-induced phosphorylation, dose dependence in MDA-453 cells; assay type: cell-based; details: 10 nM HRG
Procedure: (§2) The ability of compounds of the invention to block HRG-induced phosphorylation was tested by co-incubation with 10 nM HRG (maximal induction).

32D/erbB-4 cells [2] = experiment: HRG-dependent cell proliferation, 32D/erbB-4; assay type: cell-based, murine
Excerpt: as §1

32D/erbB-4 cells [3] = experiment: IL-3 stimulated (HRG-independent) growth, 32D/erbB-4; assay type: cell-based, murine
Excerpt: as §1

[4] = system: EGF-mediated signaling pathway (MDA-468 cells); experiment: Specificity: incubation with EGF in EGFR overexpressing cell line MDA-468; assay type: cell-based
HRG receptor = experiment: Structure-activity relationship of rifamycin analogues as heregulin antagonists (FIGS. 6 and 7); assay type: cell-based; details: substituent at C9 position
Procedure: Replacement of residues 177 and 178 by an acetyl group decreases the binding affinity of HRG to its receptor by more than 50-fold (Barbacci et al., J. Bio. Chem. 1995; 270(16)9585-9).
The structure-activity relationships of rifamycin analogues also indicates the importance of this region (FIGS. 6 and 7).
Inhibition of receptor binding--To investigate whether a compound can inhibit binding between HRG and its receptors, binding assays were performed using ^125 I labeled EGF domain of HRG-β1 (HED-β1). The binding affinity of iodine-labeled HED-β1 in T47D or MDA-453 cells was pre-determined. Unlabeled compounds were co-incubatedwith the radiolabeled ligand for 2 hours at 4° C., and the cells were washed 3 times with an ice-cold binding buffer. The labeled cells were lysed, and counted in a gamma-counter. Compounds that displaced more than 50% of labeled HED-β1 from the HRG-receptors were then re-examined in a dose-dependent manner.
as §2

Row | antagonist activity (structure-activity, FIGS. 6 and 7) (HRG receptor) | Compound | inhibition of IL-3 stimulated growth (32D cells) | inhibition of HRG-induced phosphorylation [1] | HRG-dependent cell growth inhibition (32D/erbB-4 cells [2]) | inhibition of IL-3 stimulated growth (32D/erbB-4 cells [3]) | effect on EGF-mediated signaling pathway [4]
1 |  | COC1C=COC2(C)Oc3c(C)c(O)c4c(O)c(c(C=NN5C(C)CN(Cc6cccc(O)c6)CC5C)c(O)c4c3C2=O)NC(=O)C(C)=CC=CC(C)C(O)C(C)C(O)C(C)C(OC(C)=O)C1C (stereo not drawn) [Compound A1] | not IL-3 stimulated growth | dose-dependent inhibition | inhibit only the HRG-dependent cell growth | not IL-3 stimulated growth | no or very little effect
2 | fairly good activities | COC1C=COC2(C)Oc3c(C)c(O)c4c(O)c(c(C=NN(C)C56CC7CC(CC(C7)C5)C6)c(O)c4c3C2=O)NC(=O)C(C)=CC=CC(C)C(O)C(C)C(O)C(C)C(OC(C)=O)C1C (stereo not drawn) [Compound A3] |  | dose-dependent inhibition |  |  | no or very little effect
3 | fairly good activities | COC1C=COC2(C)Oc3c(C)c(O)c4c(O)c(c(C=NN5CCCCCCCCCCCCCCCCC5)c(O)c4c3C2=O)NC(=O)C(C)=CC=CC(C)C(O)C(C)C(O)C(C)C(OC(C)=O)C1C (stereo not drawn) [Compound A4] |  |  |  |  | 
